“Also recorded” adds a separate entry of the source.
System: Punta Toro virus, yellow fever virus or Sindbis virus
Type: cell-based

Row | Structure (SMILES) | antiviral activity (in words)
1 | CC1CCCC2(C1)SCC(=O)N2NC(=O)c1[nH]c2ccc(Cl)cc2c1-c1ccccc1 (stereo not drawn) [Compound 4c, 5-Chloro-N-(7-methyl-3-oxo-1-thia-4-azaspiro[4.5]decan-4-yl)-3-phenyl-1H-indole-2-carboxamide] | moderately active; also recorded: inhibitory effect
2 | O=C(NN1C(=O)CSC12CCCCC2)c1[nH]c2ccc(Cl)cc2c1-c1ccccc1 [Compound 4b, 5-Chloro-N-(3-oxo-1-thia-4-azaspiro[4.5]decan-4-yl)-3-phenyl-1H-indole-2-carboxamide] | moderately active; also recorded: inhibitory effect
3 | CC1CCC2(CC1)SC(C)C(=O)N2NC(=O)c1[nH]c2ccc(Cl)cc2c1-c1ccccc1 (stereo not drawn) [Compound 5d, 5-Chloro-N-(2,8-dimethyl-3-oxo-1-thia-4-azaspiro[4.5]decan-4-yl)-3-phenyl-1H-indole-2-carboxamide] | moderately active; also recorded: inhibitory effect
4 | CC1SC2(CCCCC2)N(NC(=O)c2[nH]c3ccc(Cl)cc3c2-c2ccccc2)C1=O (stereo not drawn) [Compound 5b, 5-Chloro-N-(2-methyl-3-oxo-1-thia-4-azaspiro[4.5]decan-4-yl)-3-phenyl-1H-indole-2-carboxamide] | moderately active; also recorded: inhibitory effect

System: variety of DNA and RNA viruses
Type: cell-based

Row | Structure (SMILES) | antiviral activity (in words)
5 | CC1SC2(CCCC2)N(NC(=O)c2[nH]c3ccc(Cl)cc3c2-c2ccccc2)C1=O (stereo not drawn) [Compound 5a, 5-Chloro-N-(2-methyl-3-oxo-1-thia-4-azaspiro[4.4]nonan-4-yl)-3-phenyl-1H-indole-2-carboxamide] | no antiviral activity
6 | O=C(NN1C(=O)CSC12CCCC2)c1[nH]c2ccc(Cl)cc2c1-c1ccccc1 [Compound 4a, 5-Chloro-N-(3-oxo-1-thia-4-azaspiro[4.4]nonan-4-yl)-3-phenyl-1H-indole-2-carboxamide] | no antiviral activity

From paper PMC7087588 (Monatshefte Fur Chemie, 2019)
